Results on 14 molecules are retold here after paper PMC8431030, “In Vitro and In Silico Evaluation of New 1,3,4-Oxadiazole Derivatives of Pyrrolo[3,4-d]pyridazinone as Promising Cyclooxygenase Inhibitors” (International Journal of Molecular Sciences, 2021).

One test addresses T1, COX-2 (Homo sapiens, UniProt P35354).
T1 construct: gene PTGS2; kit is understood to hold human recombinant COX-2 (docking used PDB 4M11, not the assay protein)
T1 sequence (P35354 18-604): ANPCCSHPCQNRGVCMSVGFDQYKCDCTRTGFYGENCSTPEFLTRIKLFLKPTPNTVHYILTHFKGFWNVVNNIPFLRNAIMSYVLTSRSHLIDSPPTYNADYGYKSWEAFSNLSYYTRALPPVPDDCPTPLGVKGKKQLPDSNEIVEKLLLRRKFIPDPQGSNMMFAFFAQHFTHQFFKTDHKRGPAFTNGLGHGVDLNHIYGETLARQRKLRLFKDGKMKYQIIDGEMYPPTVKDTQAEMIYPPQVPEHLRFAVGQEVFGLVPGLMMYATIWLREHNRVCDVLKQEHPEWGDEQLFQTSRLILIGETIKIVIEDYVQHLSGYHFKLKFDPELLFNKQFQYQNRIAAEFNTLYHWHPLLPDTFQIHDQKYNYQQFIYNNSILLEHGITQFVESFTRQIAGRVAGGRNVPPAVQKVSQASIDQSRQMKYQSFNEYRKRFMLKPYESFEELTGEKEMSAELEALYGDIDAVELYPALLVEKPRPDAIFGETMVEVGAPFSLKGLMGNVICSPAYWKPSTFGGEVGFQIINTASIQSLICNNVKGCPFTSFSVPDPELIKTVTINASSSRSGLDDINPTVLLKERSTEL
Kind of test: colorimetric COX peroxidase assay (Cayman […]), […] nm. The format is biochemical. To be noted: read-out: IC50 [μM] (SD) / COX-2.

A further test has as its target T2, COX-1 (Ovis aries, UniProt P05979).
T2 construct: gene PTGS1; kit is understood to hold ovine COX-1
T2 sequence (P05979 25-600): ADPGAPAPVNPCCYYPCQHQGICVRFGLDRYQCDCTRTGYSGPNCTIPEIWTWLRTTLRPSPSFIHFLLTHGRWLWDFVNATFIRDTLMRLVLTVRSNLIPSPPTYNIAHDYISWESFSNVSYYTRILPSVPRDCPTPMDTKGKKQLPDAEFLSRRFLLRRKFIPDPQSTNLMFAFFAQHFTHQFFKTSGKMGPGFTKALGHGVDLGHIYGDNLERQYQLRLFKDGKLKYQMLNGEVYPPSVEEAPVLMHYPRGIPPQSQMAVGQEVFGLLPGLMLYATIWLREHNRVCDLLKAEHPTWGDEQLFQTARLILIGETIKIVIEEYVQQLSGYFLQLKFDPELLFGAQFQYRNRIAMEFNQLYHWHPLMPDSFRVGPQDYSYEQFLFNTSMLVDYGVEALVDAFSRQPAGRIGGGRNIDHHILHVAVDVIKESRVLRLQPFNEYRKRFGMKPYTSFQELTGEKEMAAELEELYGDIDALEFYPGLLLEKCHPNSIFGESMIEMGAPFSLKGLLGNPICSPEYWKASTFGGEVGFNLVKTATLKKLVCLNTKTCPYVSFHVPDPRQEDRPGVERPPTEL
Kind of test: colorimetric COX peroxidase assay (Cayman […]), […] nm. The test is classed as biochemical. Particulars: read-out: IC50 [μM] (SD) / COX-1.

Structures are written as SMILES.

`Cc1c2c(OCc3n[nH]c(=S)o3)nn(C)c(=O)c2c(C)n1-c1ccccc1` [1a]: the IC50 on COX-2 was determined as 43.6 µM; at COX-1 it was 130 µM.
Consider `CCCCn1c(C)c2c(OCc3n[nH]c(=S)o3)nn(C)c(=O)c2c1C` [1b], for which the IC50 on COX-2 turned out to be 63.4 µM; on COX-1 it was 138 µM.
Turning to `Cc1ccc(C)c(N2CCN(Cn3nc(COc4nn(C)c(=O)c5c(C)n(-c6ccccc6)c(C)c45)oc3=S)CC2)c1` [2a, 3,5,7-Trimethyl-6-phenyl-1-[[4-[(4-(2,5-dimethylphenyl)piperazin-1-yl)methyl]-2-thioxo-1,3,4-oxadiazol-5-yl]methoxy]pyrrolo[3,4-d]pyridazin-4-one], the IC50 came out at 49.7 µM on COX-2 and 50.3 µM at COX-1.
Taken in the same sequence, the figures for `CCCCn1c(C)c2c(OCc3nn(CN4CCN(c5cc(C)ccc5C)CC4)c(=S)o3)nn(C)c(=O)c2c1C` [2b, 3,5,7-Trimethyl-6-butyl-1-[[4-[(4-(2,5-dimethylphenyl)piperazin-1-yl)methyl]-2-thioxo-1,3,4-oxadiazol-5-yl]methoxy]pyrrolo[3,4-d]pyridazin-4-one] were 49.4 µM and 50 µM.
For `Cc1c2c(OCc3nn(CN4CCN(c5ccc(F)cc5F)CC4)c(=S)o3)nn(C)c(=O)c2c(C)n1-c1ccccc1` [3a, 3,5,7-Trimethyl-6-phenyl-1-[[4-[(4-(2,4-difluorophenyl)piperazin-1-yl)methyl]-2-thioxo-1,3,4-oxadiazol-5-yl]methoxy]pyrrolo[3,4-d]pyridazin-4-one] the same measures were 49.7 µM and 50.3 µM.
For `CCCCn1c(C)c2c(OCc3nn(CN4CCN(c5ccc(F)cc5F)CC4)c(=S)o3)nn(C)c(=O)c2c1C` [3b] the same measures were 56 µM and 54.3 µM.
For the molecule `Cc1c2c(OCc3nn(CN4CCN(c5ccc(Cl)c(Cl)c5)CC4)c(=S)o3)nn(C)c(=O)c2c(C)n1-c1ccccc1` [4a, 3,5,7-Trimethyl-6-phenyl-1-[[4-[(4-(3,4-dichlorophenyl)piperazin-1-yl)methyl]-2-thioxo-1,3,4-oxadiazol-5-yl]methoxy]pyrrolo[3,4-d]pyridazin-4-one], the results for the IC50 on COX-2 and at COX-1 were 49.2 µM and 50.2 µM, respectively.
Taken in the same sequence, the figures for `CCCCn1c(C)c2c(OCc3nn(CN4CCN(c5ccc(Cl)c(Cl)c5)CC4)c(=S)o3)nn(C)c(=O)c2c1C` [4b, 3,5,7-Trimethyl-6-butyl-1-[[4-[(4-(3,4-dichlorophenyl)piperazin-1-yl)methyl]-2-thioxo-1,3,4-oxadiazol-5-yl]methoxy]pyrrolo[3,4-d]pyridazin-4-one] were 57.3 µM and 56.8 µM.
For `Cc1ccc(C)c(N2CCN(C(=O)CSc3nnc(COc4nn(C)c(=O)c5c(C)n(-c6ccccc6)c(C)c45)o3)CC2)c1` [5a, 3,5,7-trimethyl-1-[[2-[2-oxo-2-(4-(2,5-dimethylphenyl)piperazin-1-yl)ethyl]sulfanyl-1,3,4-oxadiazol-5-yl]methoxy]-6-phenyl-pyrrolo[3,4-d]pyridazin-4-one] the same measures were 50.1 µM and 53.2 µM.
On to `CCCCn1c(C)c2c(OCc3nnc(SCC(=O)N4CCN(c5cc(C)ccc5C)CC4)o3)nn(C)c(=O)c2c1C` [5b, 3,5,7-trimethyl-1-[[2-[2-oxo-2-(4-(2,5-dimethylphenyl)piperazin-1-yl)ethyl]sulfanyl-1,3,4-oxadiazol-5-yl]methoxy]-6-butyl-pyrrolo[3,4-d]pyridazin-4-one], for which the results for the IC50 on COX-2 and at COX-1 were 53.8 µM and 51.8 µM, respectively.
Taken in the same sequence, the figures for `Cc1c2c(OCc3nnc(SCC(=O)N4CCN(c5ccc(F)cc5F)CC4)o3)nn(C)c(=O)c2c(C)n1-c1ccccc1` [6a, 3,5,7-trimethyl-1-[[2-[2-oxo-2-(4-(2,4-difluorophenyl)piperazin-1-yl)ethyl]sulfanyl-1,3,4-oxadiazol-5-yl]methoxy]-6-phenyl-pyrrolo[3,4-d]pyridazin-4-one] were 50.2 µM and 52.3 µM.
For `CCCCn1c(C)c2c(OCc3nnc(SCC(=O)N4CCN(c5ccc(F)cc5F)CC4)o3)nn(C)c(=O)c2c1C` [6b, 3,5,7-trimethyl-1-[[2-[2-oxo-2-(4-(2,4-difluorophenyl)piperazin-1-yl)ethyl]sulfanyl-1,3,4-oxadiazol-5-yl]methoxy]-6-butyl-pyrrolo[3,4-d]pyridazin-4-one] the same measures were 50.1 µM and 51.1 µM.
For `Cc1c2c(OCc3nnc(SCC(=O)N4CCN(c5ccc(Cl)c(Cl)c5)CC4)o3)nn(C)c(=O)c2c(C)n1-c1ccccc1` [7a, 3,5,7-trimethyl-1-[[2-[2-oxo-2-(4-(3,4-dichloro)piperazin-1-yl)ethyl]sulfanyl-1,3,4-oxadiazol-5-yl]methoxy]-6-phenyl-pyrrolo[3,4-d]pyridazin-4-one] the same measures were 50.3 µM and 51.6 µM.
In the case of `CCCCn1c(C)c2c(OCc3nnc(SCC(=O)N4CCN(c5ccc(Cl)c(Cl)c5)CC4)o3)nn(C)c(=O)c2c1C` [7b, 3,5,7-trimethyl-1-[[2-[2-oxo-2-(4-(3,4-dichlorophenyl)piperazin-1-yl)ethyl]sulfanyl-1,3,4-oxadiazol-5-yl]methoxy]-6-butyl-pyrrolo[3,4-d]pyridazin-4-one], the IC50 on COX-2 was found to be 49.5 µM; on COX-1, 50.9 µM.
